{
  "source": "the kinase profiling compilation of Christmann-Franck et al. (2016)",
  "assay_in_all_cases": "KINOMEscan competition binding",
  "conditions_in_all_cases": "compound 10.0 µM",
  "key": {"[1]": {"molecular_target": "DAPK2 (human) (UniProt Q9UIK4)"}, "[2]": {"molecular_target": "NUAK2 (human) (UniProt Q9H093)"}, "[3]": {"molecular_target": "MAP3K13 (human) (UniProt O43283)"}, "[4]": {"molecular_target": "ERN1 (human) (UniProt O75460)", "sequence (O75460 whole entry, looked up)": "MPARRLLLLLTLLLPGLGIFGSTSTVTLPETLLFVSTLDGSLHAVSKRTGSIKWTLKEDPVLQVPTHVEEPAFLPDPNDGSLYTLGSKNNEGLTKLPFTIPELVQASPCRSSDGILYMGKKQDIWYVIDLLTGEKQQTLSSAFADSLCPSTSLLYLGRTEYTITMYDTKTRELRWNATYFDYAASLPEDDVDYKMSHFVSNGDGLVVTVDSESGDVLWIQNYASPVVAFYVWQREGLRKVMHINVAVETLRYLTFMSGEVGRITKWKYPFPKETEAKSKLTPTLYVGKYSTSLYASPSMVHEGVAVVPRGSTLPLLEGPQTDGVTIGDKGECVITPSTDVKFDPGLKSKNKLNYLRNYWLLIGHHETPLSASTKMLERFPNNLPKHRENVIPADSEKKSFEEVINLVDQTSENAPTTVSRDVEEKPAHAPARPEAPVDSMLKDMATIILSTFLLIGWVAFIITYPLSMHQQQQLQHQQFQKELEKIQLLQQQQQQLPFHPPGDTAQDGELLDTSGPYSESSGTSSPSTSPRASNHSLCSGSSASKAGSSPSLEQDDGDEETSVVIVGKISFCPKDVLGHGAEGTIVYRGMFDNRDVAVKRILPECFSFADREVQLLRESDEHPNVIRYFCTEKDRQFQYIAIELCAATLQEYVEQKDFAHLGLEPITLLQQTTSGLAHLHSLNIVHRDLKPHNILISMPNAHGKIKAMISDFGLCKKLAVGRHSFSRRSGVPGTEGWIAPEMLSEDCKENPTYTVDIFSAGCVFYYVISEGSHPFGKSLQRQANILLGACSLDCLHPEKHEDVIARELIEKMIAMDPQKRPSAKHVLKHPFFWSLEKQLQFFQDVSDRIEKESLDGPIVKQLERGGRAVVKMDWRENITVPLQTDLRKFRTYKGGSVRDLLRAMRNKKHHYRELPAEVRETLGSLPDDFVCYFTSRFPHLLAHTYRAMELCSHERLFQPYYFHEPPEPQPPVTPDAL"}, "[5]": {"molecular_target": "RIOK2 (human) (UniProt Q9BVS4)"}, "[6]": {"molecular_target": "MAPK12 (human) (UniProt P53778)"}, "[7]": {"tested_on": "PIK3CA (human), P42336 [C420R]"}, "[8]": {"molecular_target": "PRKACA (human) (UniProt P17612)"}, "[9]": {"molecular_target": "PAK2 (human) (UniProt Q13177)"}, "[10]": {"molecular_target": "TYRO3 (human) (UniProt Q06418)"}, "[11]": {"molecular_target": "MYO3A (human) (UniProt Q8NEV4)"}, "[12]": {"molecular_target": "EPHA5 (human) (UniProt P54756)"}, "[13]": {"molecular_target": "CDK7 (human) (UniProt P50613)"}, "[14]": {"molecular_target": "PRKD2 (human) (UniProt Q9BZL6)"}, "[15]": {"molecular_target": "GSK3B (human) (UniProt P49841)"}, "[16]": {"tested_on": "PIK3CA (human), P42336 [E542K]"}, "[17]": {"molecular_target": "NEK7 (human) (UniProt Q8TDX7)", "sequence (Q8TDX7 whole entry, looked up)": "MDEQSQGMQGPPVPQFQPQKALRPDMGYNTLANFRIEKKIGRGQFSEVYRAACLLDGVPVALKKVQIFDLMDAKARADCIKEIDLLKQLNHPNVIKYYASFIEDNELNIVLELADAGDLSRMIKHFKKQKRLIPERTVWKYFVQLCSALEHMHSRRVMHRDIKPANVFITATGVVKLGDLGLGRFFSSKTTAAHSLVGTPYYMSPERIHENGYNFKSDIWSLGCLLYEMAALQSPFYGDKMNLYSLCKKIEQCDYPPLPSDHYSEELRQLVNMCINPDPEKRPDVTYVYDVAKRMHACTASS"}, "[18]": {"molecular_target": "FGR (human) (UniProt P09769)"}, "[19]": {"molecular_target": "HCK (human) (UniProt P08631)", "sequence (P08631 whole entry, looked up)": "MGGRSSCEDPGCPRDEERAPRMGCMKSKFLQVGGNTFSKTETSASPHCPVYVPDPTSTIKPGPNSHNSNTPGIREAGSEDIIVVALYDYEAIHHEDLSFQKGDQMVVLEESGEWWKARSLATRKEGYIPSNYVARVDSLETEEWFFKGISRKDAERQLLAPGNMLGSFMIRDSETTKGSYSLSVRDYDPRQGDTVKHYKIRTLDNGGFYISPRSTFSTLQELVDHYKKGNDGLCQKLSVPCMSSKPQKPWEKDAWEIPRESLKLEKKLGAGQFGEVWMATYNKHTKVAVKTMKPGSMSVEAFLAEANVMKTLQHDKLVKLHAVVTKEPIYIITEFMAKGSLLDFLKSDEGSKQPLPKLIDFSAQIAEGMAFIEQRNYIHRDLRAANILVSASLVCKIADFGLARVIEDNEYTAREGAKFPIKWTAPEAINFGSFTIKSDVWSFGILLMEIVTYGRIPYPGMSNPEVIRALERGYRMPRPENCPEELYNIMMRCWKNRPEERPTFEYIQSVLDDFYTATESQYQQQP"}, "[20]": {"molecular_target": "CSNK1G2 (human) (UniProt P78368)"}, "[21]": {"molecular_target": "MST4 (human) (UniProt Q9P289)"}, "[22]": {"molecular_target": "LATS1 (human) (UniProt O95835)"}, "[23]": {"molecular_target": "GRK7 (human) (UniProt Q8WTQ7)"}, "[24]": {"molecular_target": "JAK1 JH2 pseudokinase (human) (UniProt P23458)", "sequence (P23458 whole entry, looked up)": "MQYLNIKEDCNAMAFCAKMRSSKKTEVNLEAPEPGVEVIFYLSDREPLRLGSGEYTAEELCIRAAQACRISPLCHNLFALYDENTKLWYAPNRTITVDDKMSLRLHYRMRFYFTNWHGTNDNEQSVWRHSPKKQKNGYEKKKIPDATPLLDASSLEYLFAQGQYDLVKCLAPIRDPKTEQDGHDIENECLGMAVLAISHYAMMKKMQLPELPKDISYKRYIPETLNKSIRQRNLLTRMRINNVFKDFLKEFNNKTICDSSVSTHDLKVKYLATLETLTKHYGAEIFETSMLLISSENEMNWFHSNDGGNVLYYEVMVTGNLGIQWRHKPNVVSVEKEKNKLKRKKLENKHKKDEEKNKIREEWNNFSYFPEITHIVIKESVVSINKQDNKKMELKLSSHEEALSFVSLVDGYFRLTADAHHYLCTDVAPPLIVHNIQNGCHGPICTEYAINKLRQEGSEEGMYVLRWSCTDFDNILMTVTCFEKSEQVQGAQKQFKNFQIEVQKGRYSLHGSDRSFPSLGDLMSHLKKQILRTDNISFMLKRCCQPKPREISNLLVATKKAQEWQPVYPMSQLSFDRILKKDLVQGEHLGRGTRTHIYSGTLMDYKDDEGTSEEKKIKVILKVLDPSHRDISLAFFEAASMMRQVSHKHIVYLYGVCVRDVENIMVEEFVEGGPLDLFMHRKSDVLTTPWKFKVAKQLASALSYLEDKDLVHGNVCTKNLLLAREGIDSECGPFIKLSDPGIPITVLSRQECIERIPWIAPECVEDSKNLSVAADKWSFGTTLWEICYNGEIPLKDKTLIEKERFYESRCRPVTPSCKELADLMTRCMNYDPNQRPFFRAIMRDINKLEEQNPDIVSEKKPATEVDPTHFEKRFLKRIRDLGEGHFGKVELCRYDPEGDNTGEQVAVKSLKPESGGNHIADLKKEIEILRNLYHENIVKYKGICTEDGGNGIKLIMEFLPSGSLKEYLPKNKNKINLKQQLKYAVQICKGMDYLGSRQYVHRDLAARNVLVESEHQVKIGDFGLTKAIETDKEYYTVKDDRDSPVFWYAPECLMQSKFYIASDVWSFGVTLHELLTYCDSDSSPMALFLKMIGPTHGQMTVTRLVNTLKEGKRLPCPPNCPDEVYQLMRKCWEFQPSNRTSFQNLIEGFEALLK"}, "[25]": {"molecular_target": "FLT3 (human) (UniProt P36888)"}, "[26]": {"molecular_target": "LIMK2 (human) (UniProt P53671)"}, "[27]": {"molecular_target": "PIM1 (human) (UniProt P11309)"}, "[28]": {"molecular_target": "SNRK (human) (UniProt Q9NRH2)"}, "[29]": {"molecular_target": "CDKL5 (human) (UniProt O76039)"}, "[30]": {"molecular_target": "ITK (human) (UniProt Q08881)"}, "[31]": {"molecular_target": "TNIK (human) (UniProt Q9UKE5)"}, "[32]": {"molecular_target": "EPHA3 (human) (UniProt P29320)"}, "[33]": {"tested_on": "MET (human), P08581 [Y1235D]"}, "[34]": {"molecular_target": "CSNK1E (human) (UniProt P49674)", "sequence (P49674 whole entry, looked up)": "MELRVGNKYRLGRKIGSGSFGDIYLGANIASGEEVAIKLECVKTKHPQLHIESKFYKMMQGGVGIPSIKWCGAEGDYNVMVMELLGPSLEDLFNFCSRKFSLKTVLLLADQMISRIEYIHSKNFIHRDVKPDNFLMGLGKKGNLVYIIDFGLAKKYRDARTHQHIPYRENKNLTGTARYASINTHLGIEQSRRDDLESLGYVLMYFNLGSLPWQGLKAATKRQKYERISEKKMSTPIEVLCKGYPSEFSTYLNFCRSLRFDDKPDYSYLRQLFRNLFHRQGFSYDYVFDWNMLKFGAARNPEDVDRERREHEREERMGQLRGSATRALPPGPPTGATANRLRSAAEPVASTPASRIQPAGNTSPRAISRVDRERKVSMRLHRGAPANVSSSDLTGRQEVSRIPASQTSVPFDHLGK"}, "[35]": {"molecular_target": "PIK3C2G (human) (UniProt O75747)", "sequence (O75747 whole entry, looked up)": "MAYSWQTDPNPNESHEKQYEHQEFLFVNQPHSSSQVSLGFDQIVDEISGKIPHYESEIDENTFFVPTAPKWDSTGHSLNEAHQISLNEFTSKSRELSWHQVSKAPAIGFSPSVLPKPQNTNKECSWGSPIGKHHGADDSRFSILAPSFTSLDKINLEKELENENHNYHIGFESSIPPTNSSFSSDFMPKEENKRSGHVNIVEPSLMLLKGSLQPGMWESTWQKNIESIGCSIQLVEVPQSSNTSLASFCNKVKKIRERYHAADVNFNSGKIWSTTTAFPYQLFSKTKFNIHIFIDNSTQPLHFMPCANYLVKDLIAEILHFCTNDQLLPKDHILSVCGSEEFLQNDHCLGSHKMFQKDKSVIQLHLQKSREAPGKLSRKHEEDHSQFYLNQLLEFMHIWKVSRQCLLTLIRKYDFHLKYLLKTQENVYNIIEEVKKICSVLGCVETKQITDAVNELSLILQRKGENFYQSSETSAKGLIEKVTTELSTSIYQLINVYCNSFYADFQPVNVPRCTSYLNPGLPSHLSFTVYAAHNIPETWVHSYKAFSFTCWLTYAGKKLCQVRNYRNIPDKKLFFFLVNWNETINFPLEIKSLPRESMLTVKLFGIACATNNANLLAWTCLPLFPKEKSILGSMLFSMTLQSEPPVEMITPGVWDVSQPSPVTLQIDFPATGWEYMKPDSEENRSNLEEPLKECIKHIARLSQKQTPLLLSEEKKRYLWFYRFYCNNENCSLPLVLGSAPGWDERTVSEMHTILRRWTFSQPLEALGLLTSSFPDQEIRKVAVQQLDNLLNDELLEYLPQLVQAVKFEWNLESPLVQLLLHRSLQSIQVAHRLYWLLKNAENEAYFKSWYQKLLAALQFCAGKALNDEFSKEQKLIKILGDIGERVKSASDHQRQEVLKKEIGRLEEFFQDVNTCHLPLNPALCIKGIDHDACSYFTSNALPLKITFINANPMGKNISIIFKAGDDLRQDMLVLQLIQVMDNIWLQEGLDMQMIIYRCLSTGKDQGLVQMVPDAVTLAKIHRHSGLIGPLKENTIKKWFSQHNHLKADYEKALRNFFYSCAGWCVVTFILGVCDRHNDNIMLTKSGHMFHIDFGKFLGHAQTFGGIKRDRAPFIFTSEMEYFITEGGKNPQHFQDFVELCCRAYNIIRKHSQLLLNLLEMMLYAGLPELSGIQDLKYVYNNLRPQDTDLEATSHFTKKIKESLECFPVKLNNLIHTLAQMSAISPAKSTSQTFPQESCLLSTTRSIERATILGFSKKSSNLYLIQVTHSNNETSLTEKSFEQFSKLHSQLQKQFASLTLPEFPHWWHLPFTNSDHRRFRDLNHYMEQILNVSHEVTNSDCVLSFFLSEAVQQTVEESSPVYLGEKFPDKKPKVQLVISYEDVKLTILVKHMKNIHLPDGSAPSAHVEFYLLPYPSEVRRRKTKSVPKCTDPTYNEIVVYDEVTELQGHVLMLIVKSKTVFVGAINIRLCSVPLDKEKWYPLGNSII"}, "[36]": {"molecular_target": "INSR (human) (UniProt P06213)"}, "[37]": {"molecular_target": "CLK1 (human) (UniProt P49759)"}, "[38]": {"molecular_target": "PRKG2 (human) (UniProt Q13237)"}, "[39]": {"molecular_target": "TLK2 (human) (UniProt Q86UE8)"}, "[40]": {"molecular_target": "EPHB6 (human) (UniProt O15197)"}, "[41]": {"molecular_target": "BMPR2 (human) (UniProt Q13873)"}},
  "data": [
    {"compound": "COc1ccc(-c2ccc3c(N4CCOCC4)nc(N4C[C@@H](C)O[C@@H](C)C4)nc3n2)cc1CO", "values": [
      {"measurement": "kinase still bound, per cent of control", "setting": "[1]", "result": 80, "unit": "%"},
      {"measurement": "kinase still bound, per cent of control", "setting": "[2]", "result": 100, "unit": "%"},
      {"measurement": "kinase still bound, per cent of control", "setting": "[3]", "result": 100, "unit": "%"},
      {"measurement": "kinase still bound, per cent of control", "setting": "[4]", "result": 89, "unit": "%"},
      {"measurement": "kinase still bound, per cent of control", "setting": "[5]", "result": 60, "unit": "%"},
      {"measurement": "kinase still bound, per cent of control", "setting": "[6]", "result": 100, "unit": "%"},
      {"measurement": "kinase still bound, per cent of control", "setting": "[7]", "result": 2.3, "unit": "%"},
      {"measurement": "per cent of control", "setting": "[8]", "result": 100, "unit": "%"},
      {"measurement": "kinase still bound, per cent of control", "setting": "[9]", "result": 91, "unit": "%"},
      {"measurement": "kinase still bound, per cent of control", "setting": "[10]", "result": 100, "unit": "%"},
      {"measurement": "kinase still bound, per cent of control", "setting": "[11]", "result": 97, "unit": "%"},
      {"measurement": "kinase still bound, per cent of control", "setting": "[12]", "result": 94, "unit": "%"},
      {"measurement": "per cent of control", "setting": "[13]", "result": 73, "unit": "%"},
      {"measurement": "kinase still bound, per cent of control", "setting": "[14]", "result": 96, "unit": "%"},
      {"measurement": "kinase still bound, per cent of control", "setting": "[15]", "result": 100, "unit": "%"},
      {"measurement": "kinase still bound, per cent of control", "setting": "[16]", "result": 2.8, "unit": "%"},
      {"measurement": "kinase still bound, per cent of control", "setting": "[17]", "result": 100, "unit": "%"},
      {"measurement": "kinase still bound, per cent of control", "setting": "[18]", "result": 100, "unit": "%"},
      {"measurement": "kinase still bound, per cent of control", "setting": "[19]", "result": 100, "unit": "%"},
      {"measurement": "kinase still bound, per cent of control", "setting": "[20]", "result": 100, "unit": "%"},
      {"measurement": "kinase still bound, per cent of control", "setting": "[21]", "result": 100, "unit": "%"},
      {"measurement": "kinase still bound, per cent of control", "setting": "[22]", "result": 96, "unit": "%"},
      {"measurement": "kinase still bound, per cent of control", "setting": "[23]", "result": 100, "unit": "%"},
      {"measurement": "kinase still bound, per cent of control", "setting": "[24]", "result": 100, "unit": "%"},
      {"measurement": "kinase still bound, per cent of control", "setting": "[25]", "result": 71, "unit": "%"},
      {"measurement": "kinase still bound, per cent of control", "setting": "[26]", "result": 94, "unit": "%"},
      {"measurement": "kinase still bound, per cent of control", "setting": "[27]", "result": 94, "unit": "%"},
      {"measurement": "kinase still bound, per cent of control", "setting": "[28]", "result": 48, "unit": "%"},
      {"measurement": "per cent of control", "setting": "[29]", "result": 77, "unit": "%"},
      {"measurement": "kinase still bound, per cent of control", "setting": "[30]", "result": 88, "unit": "%"},
      {"measurement": "kinase still bound, per cent of control", "setting": "[31]", "result": 100, "unit": "%"},
      {"measurement": "kinase still bound, per cent of control", "setting": "[32]", "result": 90, "unit": "%"},
      {"measurement": "kinase still bound, per cent of control", "setting": "[33]", "result": 100, "unit": "%"},
      {"measurement": "kinase still bound, per cent of control", "setting": "[34]", "result": 87, "unit": "%"},
      {"measurement": "kinase still bound, per cent of control", "setting": "[35]", "result": 43, "unit": "%"},
      {"measurement": "kinase still bound, per cent of control", "setting": "[36]", "result": 97, "unit": "%"},
      {"measurement": "kinase still bound, per cent of control", "setting": "[37]", "result": 52, "unit": "%"},
      {"measurement": "kinase still bound, per cent of control", "setting": "[38]", "result": 100, "unit": "%"},
      {"measurement": "kinase still bound, per cent of control", "setting": "[39]", "result": 87, "unit": "%"},
      {"measurement": "kinase still bound, per cent of control", "setting": "[40]", "result": 83, "unit": "%"},
      {"measurement": "kinase still bound, per cent of control", "setting": "[41]", "result": 79, "unit": "%"}
    ]}
  ]
}
